This is an account of results in patent US7598234B2, “Steroid derived antibiotics” (Brigham Young University, priority 1998, dated 2009).

What all share (type): cell-based
Experiment [1] has as its system Gram-negative bacteria. In words: MIC of ester and amide side chain compounds (Table 14). Conditions: strain not given. The protocol: (§1) Aliquots of 1 mL of the suspension were added to test tubes containing 1 mL TSB and incrementally varied concentrations of cholic acid derivatives and/or erythromycin or novobiocin. In the sensitization experiments, erythromycin or novobiocin were added 15 minutes later than the cholic acid derivatives. The samples were subjected to stationary incubation at 37° C. for 24 hours. Sample turbidity was determined by measuring absorption at 760 nm (HP 8453 UV-Visible Chemstation, Hewlett Packard). Additionally, an alliquot from each of the samples showing no measurable turbidity was subcultured on TSA plates (alliquots were diluted to provide fewer than 300 CFU). Colonies that grew on the subculture after overnight incubation were counted and the number of CFU/mL in the samples were calculated. The calculated values were compared to the number of CFU/mL in the original inoculum.
(§2) Ester and amide side chains: Additional compounds, for example, compounds with amide and ester side chains, were tested.

Experiment [2] has as its system Gram-negative bacteria. In words: Sensitization to novobiocin, ester and amide side chain compounds (Table 14). Conditions: strain not given. The protocol:
as §1
(§3) Ability to permeabilize outer membrane: Compounds 11, 106, and 108-114 (FIG. 1) were tested for antibiotic activity. They were also tested for the ability to permeabilize the outer membrane of Gram-negative bacteria, causing sensitization to hydrophobic antibiotics that cannot cross the outer membrane. The permeabilization of the outer membrane was measured using erythromycin and novobiocin.
as §2

In experiment [3] the test system is Gram-negative bacteria. Description: Sensitization to erythromycin, ester and amide side chain compounds (Table 14). Conditions: Table 14; strain not given. The protocol: as §1, §3, §2

Consider `C[C@H](CCCO)[C@H]1CC[C@H]2[C@@H]3[C@H](NC(=O)CCN)C[C@@H]4C[C@H](NC(=O)CCN)CC[C@]4(C)[C@H]3C[C@H](NC(=O)CCN)[C@]12C` [Compound 209b], for which the MIC (as a rule, the least concentration at which growth counts as inhibited) in the experiment with Gram-negative bacteria [1] is more than 100 µg/mL. Further, the “b: concentration of cholic acid derivatives required to lower MIC of novobiocin to 1 μg/ML” value with Gram-negative bacteria [2] stood at 75 µg/mL. Moreover, in the experiment on Gram-negative bacteria [3], the “a: concentration of cholic acid derivatives required to lower MIC of erythromycin to 1 μg/ML” value amounted to 40 µg/mL.
As for `CC(CCCO)C1CCC2C3C(NC(=O)C(N)CCCCN)CC4CC(NC(=O)C(N)CCCCN)CCC4(C)C3CC(NC(=O)C(N)CCCCN)C12C` (stereo not drawn) [Compound 209c], the MIC in the experiment with Gram-negative bacteria [1] was 85 µg/mL. For the same compound, the “b: concentration of cholic acid derivatives required to lower MIC of novobiocin to 1 μg/ML” value with Gram-negative bacteria [2] was 60 µg/mL. Besides, the “a: concentration of cholic acid derivatives required to lower MIC of erythromycin to 1 μg/ML” value with Gram-negative bacteria [3] was 45 µg/mL.
For `C[C@H](CCCN(C)Cc1ccccc1)[C@H]1CC[C@H]2[C@@H]3[C@H](NC(=O)CN)C[C@@H]4C[C@H](NC(=O)CN)CC[C@]4(C)[C@H]3C[C@H](NC(=O)CN)[C@]12C` [Compound 210a] the same measures were 80 µg/mL, 18 µg/mL and 6 µg/mL.
As to `C[C@H](CCCN(C)Cc1ccccc1)[C@H]1CC[C@H]2[C@@H]3[C@H](NC(=O)CCN)C[C@@H]4C[C@H](NC(=O)CCN)CC[C@]4(C)[C@H]3C[C@H](NC(=O)CCN)[C@]12C` [Compound 210b], in the experiment on Gram-negative bacteria [1], the MIC was 100 µg/mL. For the same compound, in the experiment with Gram-negative bacteria [2], the “b: concentration of cholic acid derivatives required to lower MIC of novobiocin to 1 μg/ML” value worked out at 40 µg/mL. Moreover, the “a: concentration of cholic acid derivatives required to lower MIC of erythromycin to 1 μg/ML” value in the experiment on Gram-negative bacteria [3] turned out to be 15 µg/mL.
